Data as given in patent US20130065763A1, “Biocide Compositions Comprising Isoamyl Lactate” (priority 2010, published 2013).

Assay: Solubility in water of each lactate
Type: physicochemical
Conditions: for Solubility in Water: solubility of the lactate solvent in water, yes = water soluble
Experimental: Solubility of several pesticides was measured in Isoamyl lactate versus other lactates. In addition the solubility in water of each lactate has been checked.

Structure (SMILES): CC(C)CCOC(=O)C(C)O (stereo not shown) [Example 6, Isoamyl lactate]
- Solubility in Water: <1%
- Water solubility (statement in description): not water soluble

Structure (SMILES): CCCCOC(=O)C(C)O (stereo not shown) [Example C3, Butyl lactate]
- Solubility in Water: yes

Structure (SMILES): CC(C)OC(=O)C(C)O (stereo not shown) [Example C4, Isopropyl lactate]
- Solubility in Water: yes
